Legend:
HDAC1 enzyme = molecular target: T1, HDAC1 enzyme (Homo sapiens, UniProt Q13547); assay: HDAC1 enzyme inhibitory assay (HDAC-Glo I/II Assay kit); format: biochemical; details: 1 μM test compound; read-out: HDAC1 inhibitory rate (%) (1 μM)
T1 construct: prepared by transducing full length HDAC1 and HDAC6 genes into Sf-9 insect cells; GST; purchased SignalChem; host or cells: Sf-9 insect cells
Summary of the method: (§1)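 Sf-9-expressed GST-purified full-length HDAC1/HDAC6; cpd + enzyme 60 min RT, 24 mM Tris-HCl pH 7.5, 135 mM NaCl, 0.6 mM glutathione, 0.01% Tween-20; substrate-developer 20 min RT; luminescence; no-enzyme wells = 100% inhibition.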

HDAC6 enzyme = molecular target: T2, HDAC6 enzyme (Homo sapiens, UniProt Q9UBN7); assay: HDAC6 enzyme inhibitory assay (HDAC-Glo I/II Assay kit); format: biochemical; details: 1 μM test compound; read-out: HDAC6 inhibitory rate (%) (1 μM)
T2 construct: prepared by transducing full length HDAC1 and HDAC6 genes into Sf-9 insect cells; GST; purchased SignalChem; host or cells: Sf-9 insect cells
T2 sequence (Q9UBN7 1-1215): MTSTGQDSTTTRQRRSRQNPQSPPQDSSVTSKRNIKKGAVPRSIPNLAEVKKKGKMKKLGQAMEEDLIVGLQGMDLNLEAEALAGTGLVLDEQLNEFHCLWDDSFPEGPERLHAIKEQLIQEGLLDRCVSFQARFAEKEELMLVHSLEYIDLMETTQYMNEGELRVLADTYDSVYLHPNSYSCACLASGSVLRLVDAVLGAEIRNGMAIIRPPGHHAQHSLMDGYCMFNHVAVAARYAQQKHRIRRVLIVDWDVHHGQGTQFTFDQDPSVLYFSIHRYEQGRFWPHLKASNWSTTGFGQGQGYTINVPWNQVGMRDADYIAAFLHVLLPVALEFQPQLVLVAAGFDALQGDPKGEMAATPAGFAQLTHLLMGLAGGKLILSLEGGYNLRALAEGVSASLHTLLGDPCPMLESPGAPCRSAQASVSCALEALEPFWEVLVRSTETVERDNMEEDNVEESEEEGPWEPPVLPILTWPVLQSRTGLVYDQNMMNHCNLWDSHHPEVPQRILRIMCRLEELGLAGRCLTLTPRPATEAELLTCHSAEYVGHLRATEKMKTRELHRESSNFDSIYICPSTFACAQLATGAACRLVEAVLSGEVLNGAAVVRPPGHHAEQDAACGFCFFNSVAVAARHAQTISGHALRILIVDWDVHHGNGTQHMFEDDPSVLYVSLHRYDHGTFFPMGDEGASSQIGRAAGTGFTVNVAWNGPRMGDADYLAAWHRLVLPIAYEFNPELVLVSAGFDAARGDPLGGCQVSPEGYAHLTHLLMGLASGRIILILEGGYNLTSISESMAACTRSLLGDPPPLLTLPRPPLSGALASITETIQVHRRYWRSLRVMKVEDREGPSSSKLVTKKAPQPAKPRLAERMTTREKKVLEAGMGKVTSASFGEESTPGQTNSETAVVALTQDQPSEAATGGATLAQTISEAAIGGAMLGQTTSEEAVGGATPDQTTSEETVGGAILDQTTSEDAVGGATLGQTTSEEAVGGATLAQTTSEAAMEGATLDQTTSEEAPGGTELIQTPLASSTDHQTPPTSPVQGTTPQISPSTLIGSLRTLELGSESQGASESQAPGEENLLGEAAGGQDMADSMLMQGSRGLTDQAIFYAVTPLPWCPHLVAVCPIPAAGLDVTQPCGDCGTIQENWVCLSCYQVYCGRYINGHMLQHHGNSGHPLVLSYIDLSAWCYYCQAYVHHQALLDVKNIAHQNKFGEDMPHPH
Summary of the method: as §1

T1 sequence (Q13547 whole entry): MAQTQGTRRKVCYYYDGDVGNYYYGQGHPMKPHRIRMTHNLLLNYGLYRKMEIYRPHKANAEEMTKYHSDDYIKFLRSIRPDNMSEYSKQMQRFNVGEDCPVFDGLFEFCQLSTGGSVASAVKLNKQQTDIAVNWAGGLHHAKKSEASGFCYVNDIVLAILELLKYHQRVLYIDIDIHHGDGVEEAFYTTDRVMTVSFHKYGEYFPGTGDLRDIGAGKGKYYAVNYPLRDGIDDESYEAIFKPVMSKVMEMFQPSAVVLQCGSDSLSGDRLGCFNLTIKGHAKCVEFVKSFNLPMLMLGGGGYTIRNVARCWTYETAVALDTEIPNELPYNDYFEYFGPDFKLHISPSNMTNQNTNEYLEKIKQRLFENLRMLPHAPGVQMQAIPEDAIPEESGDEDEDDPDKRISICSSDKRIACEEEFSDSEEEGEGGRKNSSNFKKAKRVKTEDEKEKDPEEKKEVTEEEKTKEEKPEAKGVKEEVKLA

| SMILES | inhibition at 1 µM (HDAC1 enzyme) [%] | inhibition at 1 µM (HDAC6 enzyme) [%] |
| --- | --- | --- |
| CC(C)(C(=O)N1CCOCC1CNC(=O)c1ccc(-c2noc(C(F)(F)F)n2)s1)c1ccccc1 (stereo not drawn) [Example 247, N-((4-(2-methyl-2-phenylpropanoyl)morpholin-3-yl)methyl)-5-(5-(trifluoromethyl)-1,2,4-oxadiazol-3-yl)thiophene-2-carboxamide] | 18 | 98 |
| Cc1ncsc1C(=O)N1CCOC[C@@H]1CNC(=O)c1ccc(-c2noc(C(F)(F)F)n2)cc1 [Example 69, N-(((3S)-4-((4-methyl-1,3-thiazol-5-yl)carbonyl)morpholin-3-yl)methyl)-4-(5-(trifluoromethyl)-1,2,4-oxadiazol-3-yl)benzamide] | 16 | 100 |
| O=C(NC[C@H]1COCCN1C(=O)N1CCC(CCO)C1)c1ccc(-c2noc(C(F)(F)F)n2)cc1 (stereo partly drawn) [Example 300, N-(((3S)-4-((3-(2-hydroxyethyl)pyrrolidin-1-yl)carbonyl)morpholin-3-yl)methyl)-4-(5-(trifluoromethyl)-1,2,4-oxadiazol-3-yl)benzamide] | 4 | 90 |
| COc1cccc(C(=O)N2CCOCC2CNC(=O)c2ccc(-c3noc(C(F)(F)F)n3)cc2)c1 (stereo not drawn) [Example 29, N-((4-(3-methoxybenzoyl)morpholin-3-yl)methyl)-4-(5-(trifluoromethyl)-1,2,4-oxadiazol-3-yl)benzamide] | 19 | 99 |
| CC(C)n1nccc1C(=O)N1CCOC[C@@H]1CNC(=O)c1ccc(-c2noc(C(F)(F)F)n2)cc1 [Example 84, N-(((3S)-4-((1-isopropyl-1H-pyrazol-5-yl)carbonyl)morpholin-3-yl)methyl)-4-(5-(trifluoromethyl)-1,2,4-oxadiazol-3-yl)benzamide] | 53 | 98 |
| Cc1nocc1C(=O)N1CCOCC1CNC(=O)c1ccc(-c2noc(C(F)(F)F)n2)cc1 (stereo in doubt) [Example 94, N-(((3S)-4-((3-methyl-1,2-oxazol-4-yl)carbonyl)morpholin-3-yl)methyl)-4-(5-(trifluoromethyl)-1,2,4-oxadiazol-3-yl)benzamide] | 30 | 99 |
| N#Cc1cc(Cl)cc(C(=O)N2CCOC[C@@H]2CNC(=O)c2ccc(-c3noc(C(F)(F)F)n3)cc2)c1 [Example 86, N-(((3S)-4-(3-chloro-5-cyanobenzoyl)morpholin-3-yl)methyl)-4-(5-(trifluoromethyl)-1,2,4-oxadiazol-3-yl)benzamide] | 24 | 98 |
| N#Cc1cc(F)cc(C(=O)N2CCOC[C@@H]2CNC(=O)c2ccc(-c3noc(C(F)(F)F)n3)cc2)c1 [Example 40, N-(((3S)-4-(3-cyano-5-fluorobenzoyl)morpholin-3-yl)methyl)-4-(5-(trifluoromethyl)-1,2,4-oxadiazol-3-yl)benzamide] | 17 | 99 |
| Cc1nonc1C(=O)N1CCOCC1CNC(=O)c1ccc(-c2noc(C(F)(F)F)n2)s1 (stereo not drawn) [Example 236, N-((4-((4-methyl-1,2,5-oxadiazol-3-yl)carbonyl)morpholin-3-yl)methyl)-5-(5-(trifluoromethyl)-1,2,4-oxadiazol-3-yl)thiophene-2-carboxamide] | 43 | 98 |
| O=C(NCC1COCCN1C(=O)c1cc(Cl)cc(Cl)c1)c1ccc(-c2noc(C(F)(F)F)n2)cc1 (stereo in doubt) [Example 112, N-(((3R)-4-(3,5-dichlorobenzoyl)morpholin-3-yl)methyl)-4-(5-(trifluoromethyl)-1,2,4-oxadiazol-3-yl)benzamide] | 16 | 97 |
| Cc1nonc1C(=O)N1CCOC[C@@H]1CNC(=O)c1ccc(-c2noc(C(F)(F)F)n2)cn1 [Example 194, N-(((3S)-4-((4-methyl-1,2,5-oxadiazol-3-yl)carbonyl)morpholin-3-yl)methyl)-5-(5-(trifluoromethyl)-1,2,4-oxadiazol-3-yl)pyridine-2-carboxamide] | 36 | 97 |
| O=C(NCC1COCCN1C(=O)c1ccccc1)c1ccc(-c2noc(C(F)(F)F)n2)cn1 (stereo not drawn) [Example 181, N-((4-benzoylmorpholin-3-yl)methyl)-5-(5-(trifluoromethyl)-1,2,4-oxadiazol-3-yl)pyridine-2-carboxamide] | 29 | 97 |
| Cc1cc(C#N)ccc1C(=O)N1CCOC[C@@H]1CNC(=O)c1ccc(-c2noc(C(F)(F)F)n2)cc1 [Example 87, N-(((3S)-4-(4-cyano-2-methylbenzoyl)morpholin-3-yl)methyl)-4-(5-(trifluoromethyl)-1,2,4-oxadiazol-3-yl)benzamide] | 29 | 98 |
| CCc1noc(C)c1C(=O)N1CCOCC1CNC(=O)c1ccc(-c2noc(C(F)(F)F)n2)cc1 (stereo in doubt) [Example 102, N-(((3S)-4-((3-ethyl-5-methyl-1,2-oxazol-4-yl)carbonyl)morpholin-3-yl)methyl)-4-(5-(trifluoromethyl)-1,2,4-oxadiazol-3-yl)benzamide] | 50 | 99 |
| C[C@@H]1CCCN1C(=O)N1CCOC[C@@H]1CNC(=O)c1ccc(-c2noc(C(F)(F)F)n2)cc1 [Example 289, N-(((3S)-4-(((2R)-2-methylpyrrolidin-1-yl)carbonyl)morpholin-3-yl)methyl)-4-(5-(trifluoromethyl)-1,2,4-oxadiazol-3-yl)benzamide] | 4 | 85 |
| O=C(O)c1cccc(C(=O)N2CCOC[C@@H]2CNC(=O)c2ccc(-c3noc(C(F)(F)F)n3)cc2)c1 [Example 269, 3-(((3S)-3-(((4-(5-(trifluoromethyl)-1,2,4-oxadiazol-3-yl)benzoyl)amino)methyl)morpholin-4-yl)carbonyl)benzoic acid] | 7 | 89 |
| O=C(NCC1COCCN1C(=O)c1ccccn1)c1ccc(-c2noc(C(F)(F)F)n2)cc1 (stereo not drawn) [Example 12, N-((4-(pyridin-2-ylcarbonyl)morpholin-3-yl)methyl)-4-(5-(trifluoromethyl)-1,2,4-oxadiazol-3-yl)benzamide] | 7 | 98 |
| O=C(NCC1COCCN1C(=O)C1CCNC1=O)c1ccc(-c2noc(C(F)(F)F)n2)cc1 (stereo in doubt) [Example 104, N-(((3S)-4-((2-oxopyrrolidin-3-yl)carbonyl)morpholin-3-yl)methyl)-4-(5-(trifluoromethyl)-1,2,4-oxadiazol-3-yl)benzamide] | 9 | 57 |
| O=C(NC[C@H]1COCCN1C(=O)N1CCC(F)(F)CC1)c1ccc(-c2noc(C(F)(F)F)n2)cc1 [Example 277, N-(((3S)-4-((4,4-difluoropiperidin-1-yl)carbonyl)morpholin-3-yl)methyl)-4-(5-(trifluoromethyl)-1,2,4-oxadiazol-3-yl)benzamide] | 8 | 101 |
| O=C(NC[C@H]1COCCN1C(=O)N1CCC[C@@H]1CO)c1ccc(-c2noc(C(F)(F)F)n2)cc1 [Example 108, N-(((3S)-4-(((2R)-2-(hydroxymethyl)pyrrolidin-1-yl)carbonyl)morpholin-3-yl)methyl)-4-(5-(trifluoromethyl)-1,2,4-oxadiazol-3-yl)benzamide] | 2 | 100 |
| O=C(NC[C@H]1COCCN1C(=O)C1CCCCC1)c1ccc(-c2noc(C(F)(F)F)n2)cn1 [Example 204, N-(((3S)-4-(cyclohexylcarbonyl)morpholin-3-yl)methyl)-5-(5-(trifluoromethyl)-1,2,4-oxadiazol-3-yl)pyridine-2-carboxamide] | 22 | 97 |
